Assay results published in US5532400A, “2,6-di-alkyl-4-silyl-phenols as antiatheroscelerotic agents” (Merrell Pharmaceuticals Inc., priority 1994, dated 1996).

Test system: human LDL
Test: Inhibition of LDL lipid peroxidation (cupric sulfate-induced, thiobarbituric acid assay)
Assay type: biochemical
Settings: 250 μg human LDL, test compound 30 min at 42° C., cupric sulfate 12.5 μM, 37° C., 2.5 hours, read-out: ID50 (concentration of test compound required to inhibit 50% of LDL lipid peroxidation)
Procedure: The degree of inhibition of LDL lipid peroxidation was determined by the method of Yagi et al. [Vitamins 39, 105 (1968)].
A 0.5 mL solution containing 250 micrograms (μg) of human LDL was incubated with the test compound, in amounts varying from 0 to 30 μg, for 30 minutes at 42° C. To this mixture was added 1 mL of a cupric sulfate solution (final concentration 12.5 μM) and the mixture was incubated at 37° C. for 2.5 hours. The amount of peroxidation of LDL lipid was determined by the thiobarbituric acid assay. The concentration of test compound required to inhibit 50% of LDL lipid peroxidation (ID50) was determined.

| SMILES | IC50 |
| --- | --- |
| CC(C)(C)c1cc(SC[Si](C)(C)C)cc(C(C)(C)C)c1O [Compound A] | 2.8 µM |
| CC(C)(C)c1cc(SC[Si](C)(C)c2ccccc2)cc(C(C)(C)C)c1O [Compound B] | 3 µM |
